Square brackets hold non-standard residues; d marks the D form. Ends that are not written are not given here. Aun = NCCCCCCCCCCC(=O)O
Legend:
[1] = Stent flow model, retention of radiolabelled composition on coated stent; assay type: binding; details: 5 ml/min, 37° C.
Method: In this example, an in vitro model for in vivo stability on a medical device comprising a stent was performed. The stent flow model included a “circulatory system” comprising a peristaltic pump and clear silicone tubing into which is placed a stent (8 mm, stainless steel) coated with a composition according to the invention. Coating of the stents was accomplished by incubating the stents with radiolabelled composition 132 (specific activity 2,400 cpm/pmole at 20 μM in PBS) for 1 hour at 20° C., followed by extensive washing with buffer. […] In another variation of the stent flow model, 10% BSA+10 mM guanidinium chloride was circulated through the circulatory system at a flow rate of 5 ml/min for 18 hours at 37° C. After circulation in the respective variations of the stent flow model, the coated stents were then counted for radioactivity. To serve as an assay “control”, some coated stents were not placed in the stent flow model, but rather counted for radioactive counts to provide a reference from which percent retention could be calculated for those coated stents included in the stent flow model.

[2] = Critical micelle concentration (methyl orange assay); assay type: physicochemical; details: pH 7 PBS, A484
Method: Formation of a composition of the invention, and evidence of macromolecular network formation, may be monitored or quantified by any means known in the art. In this example, macromolecular formation was detected using a standard assay for determining critical micelle concentration (“CMC”). In this assay, a solution containing the composition of the invention (in a range of concentrations in pH 7 phosphate buffered saline (“PBS”)) was mixed with a solution of methyl orange (0.04 mM in PBS), and the absorbance of the mixture was measured at 484 nm (A484). CMC is the concentration at which a sharp decrease in absorbance at A484 is observed, a change in the optical properties of methyl orange when trapped in a hydrophobic phase, such as caused by self-association as a macromolecular network (Table 7, “CMC”). Also included in this assay were an assay control peptide having an amino acid sequence of SEQ ID NO:122 (Table 7, “Control”), and compound 119 (a PEGylated peptide, the peptide having an amino acid sequence of SEQ ID NO:122, as described in more detail in Example 6 herein).

[3] = Binding assay for glycopeptide antibiotic (biotinylated vancomycin, immobilized peptide); details: peptide immobilized on streptavidin plate
Method: A typical binding assay for glycopeptide antibiotic was performed according to the following procedure. Briefly, synthetic peptides comprising an amino acid sequence to be characterized for binding were biotinylated to facilitate immobilization on streptavidin-coated 96-well plates. The microtiter plates were coated with streptavidin by adding 50 μl of a 10 μg/ml streptavidin solution in 0.1 M NaHCO3, and incubating the plates for at least 3 hours. The plate wells were blocked by adding 150 μl of a 1% BSA solution in 0.1 NaHCO3 with incubation for at least 2 hours, and the plates were stored at 4° C. until needed. Before use, the streptavidin plates were washed extensively in buffer-T. Added per well was peptide (100 μl 0.1 μM peptide in buffer-T), and then incubated for 30 minutes at room temperature with shaking. 200 μl of 0.5 mM biotin in buffer-T was added to block the remaining streptavidin sites, and plates were incubated for 15 minutes at room temperature. Plates were then washed with buffer-T to remove the excess biotin and peptide. Serial dilutions of biotinylated glycopeptide antibiotic in buffer-T were added (100 μl) to each well, representing a range of concentrations between 100 μM and […]. Plates were incubated for 30 minutes at room temperature with shaking prior to washing several times with buffer-T. Glycopeptide antibiotic was then detected by adding 100 μl of a diluted streptavidin-alkaline phosphatase conjugate to each well and incubated at room temperature for 30 minutes. Excess conjugate was removed by repeated washes with buffer-T, and the amount of alkaline phosphatase remaining in the well was detected using a pNPP (para-nitrophenylphosphate) colorimetric enzymatic assay. The relative amount of glycopeptide antibiotic captured by the peptides was determined by measuring the absorbance at 405 nm of the colored product of the alkaline phosphatase reaction. The EC50 was determined for each peptide relative to the binding affinity for the glycopeptide antibiotic used in the assay, as shown in Table 8 (with vancomycin as a representative glycopeptide antibiotic).

[4] = tested on: Staphylococcus aureus strain MZ100; assay: Tibia pin assay (coated titanium pins with vancomycin, bacterial culture); assay type: cell-based; design: key: —: no cfus; too many cfus to count, as they converge into one spot; details: 3 hours 37° C.
Excerpt: In this assay, titanium pins were used as a model for tibia pins. Briefly, sterile pins were first coated with biofunctional composition (“SEQ ID NO:124-linker-SEQ ID NO:122”) comprising a substrate-binding peptide having binding specificity for vancomycin (“SEQ ID NO:124”) linked to a substrate-binding peptide having binding specificity for metal (“SEQ ID NO:122”), or a composition of the invention formed from compound comprising the biofunctional composition covalently coupled to fatty acid. The respective coatings also include vancomycin bound thereto. The coated pins were then placed in a silicone tube containing liquid bacterial growth medium and inoculated with bacteria. After incubation, the pins were removed, and then the liquid growth medium was serially diluted. The serial dilutions were inoculated onto bacterial culture plates, the plates were incubated, and counted on the plates were bacterial colonies.
In this assay, test samples (biofunctional composition (Table 6, “BC”) or compositions 133, 134, 135, 136 139) each were used to coat a pin by incubating the test sample (in a range of from about 0.8 mM to about 1 mM) with 2.5 μl of a 10 mM vancomycin solution and PBS to a final volume of 250 μl in a microtube (3 pins per tube) for 60 minutes at room temperature with occasional agitation. In a piece of silicone tubing (1.5 mm inner diameter, 50 mm long), added is tryptic soy broth+0.2% glucose, the coated pin, and 103 colony forming units (cfu) of Staphylococcus aureus strain MZ100 in either a 20 μl inoculum, 40 μl inoculum, or 60 μl inoculum. The tubing is clamped closed, and the tubing is incubated for 37° C. for 3 hours. After 3 hours, serial dilutions (1:10, 1:100, 1:1000) were made of the culture media from each tubing, and 10 μl of the undiluted culture medium and of each dilution were spotted onto the bacterial culture plate. The bacterial culture plate was incubated overnight at 37° C., and then the cfus were counted. The results, a composite of different assay runs, are shown in Table 6 (“−” means no cfus; “many” means too many cfus to count, as they converge into one spot; “NT” means not tested).

[5] = assay type: binding; details: 18 hour incubation in 10% BSA+10 mM guanidinium chloride; FIG. 1
Excerpt: In this example, illustrated are unexpected beneficial properties of the composition of the invention, including but not limited to, one or more improved biophysical properties. Such one or more unexpected beneficial properties of a composition of the invention may comprise an increase in stability. An increase in stability may comprise any one or more of resistance to chemical denaturation, resistance to proteolytic degradation, improved retention to a substrate (e.g., resistance to being competed off a substrate to which it is bound, such as by proteins or other biomolecules found in body tissues). Thus, to ascertain a beneficial property of a composition of the invention, it is compared to the properties of a component of the composition-namely, a substrate-binding peptide by itself (e.g., without fatty acid covalently coupled thereto). An assay was developed that, from our direct comparisons (see, e.g., discussion of FIG. 2 below, and Example 7 herein), mimicked the effect of incubation of substrate-binding peptide with human plasma on stability of binding of a substrate-binding peptide to its substrate. The assay utilized incubations in the presence of 10% bovine serum album (BSA) with 10 mM guanidinium chloride. The high BSA concentration mimics the elevated albumin content of human plasma, and the guanidinium chloride is used to compete with any charged interactions involved in binding of the substrate-binding peptide to its substrate.
In this assay, two immunoassay plates were prepared for a “side-by-side” comparison of binding of a test sample (substrate-binding peptide or composition of the invention) to its substrate with or without the presence of 10% BSA with 10 mM guanidinium chloride. The wells of each 96-well polypropylene plate were incubated with 350 μl BSA 1% in PBS for 30 minutes at 20° C. with 500 rpm shaking. To each well was added one acetone-cleaned 3/32″ 316LVM stainless steel bead, followed by addition of dilutions in PBS of the test sample in a range of concentrations starting from 10 μM. Final volume in each well was 200 μl. The plates were incubated for 1 hour at 20° C. with 500 rpm shaking to allow for the binding to occur. The beads were washed 3 times with 250 μl PBS using a plate washer. […]
In the immunoassay for detecting binding without the presence of 10% BSA with 10 mM guanidinium chloride, added to each well was 200 μl of streptavidin AP (AP is alkaline phosphatase) at 1/200 in TBS+1% BSA. […] When color has developed, each well was read at OD405 nm in endpoint mode using a plate reader. […] When color has developed, the wells were read at OD405 nm in endpoint mode using a plate reader. […]

Ac-Y-AUD-AUD-AUD-AUD-AUD-AUD-SEQ ID NO: 122 (Ac-Y[Aun][Aun][Aun][Aun][Aun][Aun]SSHRTNHKKNNPKKKNKTRGSSGK) [Compound 132]
composition remained bound to the coated stents ([1]; 10% BSA+10 mM guanidinium chloride, 18 hours): over 90%
composition remained bound to the coated stents ([1]; human plasma, 7 days): over 90%
CMC [2]: 0.123 µM
EC50 [3]: 0.06 µM

SSHRTNHKKNNPKKKNKTRGSSGK [Compound 131, AUD-AUD-AUD-AUD-AUD-AUD-AUD-AUD-SEQ ID NO: 122]
CMC [2]: 0.37 µM
EC50 [3]: 0.1 µM

SSHRTNHKKNNPKKKNKTRGSSGK [Compound 130, AUD-AUD-AUD-AUD-AUD-AUD-SEQ ID NO: 122]
CMC [2]: 0.041 µM
EC50 [3]: 10 µM

SSSCLIDMYGVCHNFDGAYDSSRG [Compound 134, AUD-AUD-AUD-AUD-SEQ ID NO: 124-linker-SEQ ID NO: 122]
cfu 1:10 ([4]; Volume 20 μl inoculum): —
cfu 1:100 ([4]; Volume 20 μl inoculum): —
cfu 1:1000 ([4]; Volume 20 μl inoculum): —
cfu undiluted ([4]; Volume 20 μl inoculum): —
cfu 1:10 ([4]; Volume 40 μl inoculum): 6 cfu
cfu 1:100 ([4]; Volume 40 μl inoculum): 1 cfu
cfu 1:1000 ([4]; Volume 40 μl inoculum): —
cfu undiluted ([4]; Volume 40 μl inoculum): many
cfu 1:10 ([4]; Volume 60 μl inoculum): 17 cfu
cfu 1:100 ([4]; Volume 60 μl inoculum): 5 cfu
cfu 1:1000 ([4]; Volume 60 μl inoculum): —
cfu undiluted ([4]; Volume 60 μl inoculum): many
EC50 [3]: 10 µM

AUD-AUD-AUD-AUD-SEQ ID NO:122 ([Aun][Aun][Aun][Aun]SSHRTNHKKNNPKKKNKTRGSSGK) [Compound 122]
retention of binding compared to substrate-binding peptide alone (SEQ ID NO:122) [5]: significantly improved retention
CMC [2]: 0.123 µM

AUD-AUD-K-AUD-AUD-AUD-AUD-SEQ ID NO: 122 ([Aun][Aun]K[Aun][Aun][Aun][Aun]SSHRTNHKKNNPKKKNKTRGSSGK) [Compound 123]
retention of binding compared to substrate-binding peptide alone (SEQ ID NO:122) [5]: significantly improved retention
CMC [2]: 0.04 µM

Source: patent US20090246248A1, “COATING COMPOSITIONS HAVING IMPROVED PERFORMANCE” (priority 2008, published 2009)
